The values that follow come from patent US20080064871A1, “Production Method of Nitrogen-Containing Fused Ring Compounds” (Japan Tobacco Inc., priority 2006, published 2008).

As a reminder, the IC50 is the concentration that gives 50% inhibition.

The structures appear in SMILES notation. pIC50: −log10 of the molar value. Where only a bound is given, the exact number is not on record here.

For one series, the target named is T1, human URAT1 (Homo sapiens, UniProt Q96S37).
T1 construct: Human URAT1 full length cDNA was subcloned to expression vector pcDNA3.1; expressed in transfected cells; host or cells: HEK293 cells (pcDNA3.1, geneticin-selected)
T1 sequence (Q96S37 1-553): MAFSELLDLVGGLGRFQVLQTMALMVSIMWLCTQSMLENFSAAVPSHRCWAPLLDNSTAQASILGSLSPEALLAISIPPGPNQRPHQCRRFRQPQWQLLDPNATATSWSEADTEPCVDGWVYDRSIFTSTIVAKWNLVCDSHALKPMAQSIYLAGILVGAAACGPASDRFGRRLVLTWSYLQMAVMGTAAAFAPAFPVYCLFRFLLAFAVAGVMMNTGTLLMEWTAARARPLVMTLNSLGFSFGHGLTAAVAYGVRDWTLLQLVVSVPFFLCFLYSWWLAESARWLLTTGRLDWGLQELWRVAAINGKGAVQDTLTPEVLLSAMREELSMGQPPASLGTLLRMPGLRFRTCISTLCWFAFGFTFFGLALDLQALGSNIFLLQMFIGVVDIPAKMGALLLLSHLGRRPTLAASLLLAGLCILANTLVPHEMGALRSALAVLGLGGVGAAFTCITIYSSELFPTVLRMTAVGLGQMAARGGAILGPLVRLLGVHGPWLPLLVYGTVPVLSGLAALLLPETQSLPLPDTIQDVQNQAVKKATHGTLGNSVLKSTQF
In words: Uric acid transport inhibitory test using human URAT1-expressing cells. Format: cell-based. To be noted: human URAT1 expressing HEK293 cells, uptake of 14C-labeled uric acid for 5 min, room temperature; read-out: hURAT1 (IC50, concentration necessary for inhibiting the uric acid transport rate by 50%). An excerpt:
Reference Experimental Example 1 Uric Acid Transport Inhibitory Test Using Human Urat1-Expressing Cells
Human URAT1 full length cDNA was subcloned to expression vector pcDNA3.1 and human URAT1 gene was transfected into human embryonic kidney derived cell line (HEK293 cells) by liposome method using Lipofectamine2000. Simultaneously, HEK293 cells transfected with expression vector pcDNA3.1 alone (hereinafter mock cells) were also produced. HEK293 cells expressing human URAT1 gene or mock cells were selected with geneticin resistance as an index. The functional expression of human URAT1 gene was confirmed by a method similar to the following method, using transport of uric acid labeled with ^14C into the cells as an index.
Human URAT1 expressing HEK293 cells or mock cells were cultured in Dulbecco's modified Eagle's MEM medium (high glucose) containing 10% fetal bovine serum, 0.5 mg/mL geneticin sulfate, 100 units/mL penicillin and 100 μg/mL streptomycin under the conditions of 37° C. and 5% CO2 in an incubator. The cells were plated in a 96 well plate (poly-D-Lysine coated) at 1×10^5 cells/well and the following uric acid transport inhibitory test was performed 24 hr later. This test was performed at room temperature.
After the medium was removed by aspiration from each well, the cells were washed once with Hank's Balanced Salt Solution (HBSS) and preincubated with HBSS ([…]) for 5 min. HBSS was aspirated and an assay buffer (wherein NaCl in the above-mentioned HBSS had been substituted with Na-gluconate) containing various concentrations of the Example compound and a radioactive ligand (uric acid labeled with 14C; final concentration […]) was added to each well at […] and an uptake reaction was carried out for 5 min. After the reaction, the cells were washed twice with ice-cold HBSS ([…]), and Microscin ti TM 20 (PerkinElmer) was added at […]. The cells were lysed by stirring and the radioactivity of each well was measured in a liquid scintillation counter (TOP COUNT, Packard).
The uric acid transport rate (%) of the Example compound at each concentration was calculated relative to the radioactivity (difference in radioactivity between human URAT1 expressing HEK293 cells and mock cells without addition of Example compound (DMSO addition)) showing URAT1 specific uric acid transport as 100%, and the concentration (IC50) of the Example compound necessary for inhibiting the uric acid transport rate by 50% was determined. In Table-Table, “+++” means IC50 value of less than 100 nM, “++” means IC50 value of 100 nM to less than 1000 nM, and “+” means IC50 value of 1000 nM to less than 3000 nM.
For the molecule `Cc1ccc2c(c1)N(C(=O)c1cc(Br)c(O)c(Br)c1)CCO2` [Example 81, (3,5-dibromo-4-hydroxyphenyl)-(6-methyl-2,3-dihydrobenzo[1,4]oxazin-4-yl)-methanone], the pIC50 is greater than 7.00.
In the case of `O=C(c1cc(Br)c(O)c(Br)c1)N1CCOc2ccc(Cl)cc21` [Example 82, (6-chloro-2,3-dihydrobenzo[1,4]oxazin-4-yl)-(3,5-dibromo-4-hydroxyphenyl)-methanone], the pIC50 was greater than 7.00.
With `CS(=O)(=O)N1CCN(C(=O)c2cc(Cl)c(O)c(Cl)c2)c2ccccc21` [Example 83, (3,5-dichloro-4-hydroxyphenyl)-(4-methanesulfonyl-3,4-dihydro-2H-quinoxalin-1-yl)-methanone], the pIC50 is 6.00 to 7.00.
As to `CCS(=O)(=O)c1ccc2c(c1)N(C(=O)c1cc(Cl)c(O)c(Cl)c1)CCO2` [Example 84, (3,5-dichloro-4-hydroxyphenyl)-(6-ethanesulfonyl-2,3-dihydrobenzo[1,4]oxazin-4-yl)-methanone], the pIC50 was 5.52 to 6.00.
For `O=C(c1cc(Cl)c(O)c(Cl)c1)N1CCOc2ccc(C(F)(F)F)cc21` [Example 85, (3,5-dichloro-4-hydroxyphenyl)-(6-trifluoromethyl-2,3-dihydrobenzo[1,4]oxazin-4-yl)-methanone], the pIC50 was greater than 7.00.
In the case of `COc1c(Cl)cc(C(=O)N2CCOc3ccccc32)cc1Cl` [Example 86, (3,5-dichloro-4-methoxyphenyl)-(2,3-dihydrobenzo[1,4]oxazin-4-yl)-methanone], the pIC50 was 5.52 to 6.00.
For `CC(=O)Oc1c(Cl)cc(C(=O)N2CCOc3ccccc32)cc1Cl` [Example 87, 2,6-dichloro-4-(2,3-dihydrobenzo[1,4]oxazine-4-carbonyl)-phenyl acetate], the pIC50 was 6.00 to 7.00.
Regarding `O=C(c1cc(Cl)c(O)c(Cl)c1)N1CCOc2cccc(O)c21` [Example 89, (3,5-dichloro-4-hydroxyphenyl)-(5-hydroxy-2,3-dihydrobenzo[1,4]oxazin-4-yl)-methanone], the pIC50 was greater than 7.00.
Regarding `O=C(c1cc(Cl)c(O)c(Cl)c1)N1CCOc2c(O)cccc21` [Example 90, (3,5-dichloro-4-hydroxyphenyl)-(8-hydroxy-2,3-dihydrobenzo[1,4]oxazin-4-yl)-methanone], the pIC50 was 6.00 to 7.00.
For `CCOC(=O)COc1c(Cl)cc(C(=O)N2CCOc3ccccc32)cc1Cl` [Example 91, ethyl [2,6-dichloro-4-(2,3-dihydrobenzo[1,4]oxazine-4-carbonyl)phenoxy]acetate], the pIC50 is 5.52 to 6.00.
Same read-out and setting: for `O=C(c1cc(Cl)c(O)c(Cl)c1)N1CCCOc2ccccc21` [Example 94] the value was 6.00 to 7.00.
On to `O=C(c1cc(Cl)c(O)c(Cl)c1)N1CCCOc2ccccc21` [Example 95, (3,5-dichloro-4-hydroxyphenyl)-(7,8-dihydro-6H-5-oxa-9-azabenzocyclohepten-9-yl)-methanone], for which the pIC50 was 6.00 to 7.00.

The target in the next series is T2, CYP2C9 (Homo sapiens, UniProt P11712).
T2 construct: Human liver microsome (20 mg protein/mL, 5 μL, Xenotech LLC, purchased from Lenexa Kans.); tissue Xenotech LLC; host or cells: human liver microsome
T2 sequence (P11712 whole entry): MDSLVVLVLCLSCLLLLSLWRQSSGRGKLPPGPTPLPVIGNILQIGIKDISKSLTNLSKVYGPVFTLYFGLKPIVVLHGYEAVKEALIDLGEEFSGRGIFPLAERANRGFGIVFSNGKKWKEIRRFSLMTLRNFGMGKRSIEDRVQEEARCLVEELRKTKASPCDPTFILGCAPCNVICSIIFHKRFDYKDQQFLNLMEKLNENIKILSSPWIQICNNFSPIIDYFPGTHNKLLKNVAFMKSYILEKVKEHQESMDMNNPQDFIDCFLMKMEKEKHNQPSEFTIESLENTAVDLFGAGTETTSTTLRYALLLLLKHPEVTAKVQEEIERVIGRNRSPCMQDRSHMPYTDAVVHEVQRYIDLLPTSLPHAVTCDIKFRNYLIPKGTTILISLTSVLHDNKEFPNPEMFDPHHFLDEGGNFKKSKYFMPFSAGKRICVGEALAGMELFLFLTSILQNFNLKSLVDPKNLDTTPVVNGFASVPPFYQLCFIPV
In words: CYP inhibitory test using human liver microsome. Format: in vitro ADME. Particulars: human liver microsomes, pH 7.4, probe diclofenac, model substrate diclofenac, 37° C. 10 min, LC/MS/MS, read-out: CYP2C9 inhibition IC50. As to the method: Reference Experimental Example 2 Cyp Inhibitory Test Using Human Liver Microsome
Human liver microsome (20 mg protein/mL, 5 μL, Xenotech LLC, purchased from Lenexa Kans.) was suspended in 100 mM potassium phosphate buffer (70 μL, pH 7.4), mixed with a solution (0.5 μL) of the Example compound dissolved in DMSO and preincubated at 37° C. for 5 min. NADPH producing system coenzyme solution (β-nicotinamide adenine dinucleotide phosphate: 5.2 mM, D-glucose-6-phosphate: 13.2 mM, magnesium chloride: 13.2 mM, glucose-6-phosphate dehydrogenase: 1.8 U/mL) 25 μL, and a model substrate (CYP3A4: midazolam 1 mM, CYP2D6: bufuralol 1 mM, CYP2C9: diclofenac 2 mM) 0.5 μL dissolved in DMSO were added to start the reaction. After incubation at 37° C. for 10 min., acetonitrile (200 μL) containing an internal standard substance (propranolol 1 μM) was added and the mixture was centrifuged (room temperature, 3000 rpm, 20 min). The amount of the metabolite produced from each model substrate in the supernatant was measured by high performance liquid chromatography/mass spectrometry (LC/MS/MS) and each CYP enzyme activity was determined. The concentration showing 50% inhibition (IC50) was calculated relative to the enzyme activity without addition of Example compound (DMSO 0.5 μL added) as 100%.
With `O=C(c1cc(Cl)c(O)c(Cl)c1)N1CCCOc2ccccc21` [Example 94], the IC50 at 10 min came out at 6000 nM.
